The results in this text go back to US20070261950A1, “IONIZED WATER AND METHOD OF PRODUCING SAME” (priority 2006, published 2007).

The subject of experiment [1] is RAW264.7 cells. The experiment can be described thus: IL-1β production by peptidoglycan-stimulated RAW264.7 cells (ELISA). It is filed as cell-based, mouse. The note with it: peptidoglycan 5 μg/ml, 24 hours; 25% NIW, 75% DIW; DH-DIW; NaClO 100 ppm. As to the method: Next, the effects of NIW generated from 0.12% NaCl solution or water containing DH (dissolved hydrogen) on proinflammatory cytokine, IL-1β, production by the RAW264.7 cells in vitro was studied. Briefly, mouse RAW264.7 cells in 96-well tissue culture plates were stimulated with 5 μg/ml of peptidoglycan (Staphylococcus aureus origin, from Sigma) in NIW-based complete medium of α-MEM (25% NIW, 75% DIW) or DIW-based α-MEM (100% DIW). Hydrogen was dissolved in DIW for two days (DH-DIW) or NaClO (100 ppm) was additionally added to DIW. All media used in this assay were supplemented with FBS (10%). After 24 hours of incubation, culture supernatants were collected from the 96-well plates and diluted in an equal volume of PBS containing 0.05% Tween 20 detergent (PBST). A commercially available ELISA kit for IL-1β was employed to measure the concentration of IL-1β in the culture supernatants.
(ELISA stands for enzyme-linked immunosorbent assay.)

For experiment [2], the system named is RAW264.7 cells. The experiment can be described thus: Intracellular ROS induced by LPS in RAW264.7 cells (C400 fluorescence, confocal microscopy). Format: cell-based, mouse. The note with it: 24 hours. As to the method: More specifically, RAW264.7 cells were incubated in 10% FBS containing α-MEM dissolved in a) 0.12% NaCl, b) 0.12% NaCl+85 ppm NaClO, or c) NIW. The cells were incubated in the presence or absence of E. coli LPS (1 μg/ml) for 24 hours. The cells were stained with Fluorescein-derivative ROS reacting reagent, 5-(and 6)-carboxy-2′,7′-dichlorodihydrofluorescein diacetate (#C400, Molecular Probes). The C400 only reacts with ROS and develops fluorescence emission at a wavelength range of 517-527 nm. The staining pattern was analyzed by 0.3 μm sequential optical sectioning at ×400 or ×1000 magnification with a Leica™ TCS/SP-2 laser scan confocal microscope.

Structures are written as SMILES.

As to `OCl` [sodium hypochlorite (NaClO) water, sodium hypochlorite], in the experiment with RAW264.7 cells [1], the IL-1β production result is “augmented the mitogenic activity of the peptidoglycan”. Besides, in the experiment with RAW264.7 cells [2] (E. coli LPS 1 μg/ml), the “LPS-dependent intracellular ROS induction” value is “LPS treatment induced intracellular ROS”. Moreover, the “intracellular ROS in the absence of LPS” value with RAW264.7 cells [2] (no LPS) was “did not show intracellular ROS”.
